According to publication doi:10.1101/2025.07.03.663083, “TMC1 and TMC2 are cholesterol-dependent scramblases that regulate membrane homeostasis in auditory hair cells” (bioRxiv, 2025):

Legend:
Assay in all cases: proteoliposome scramblase assay, dithionite and BSA back-extraction of NBD fluorescence
Assay type in all cases: functional
FL MuTMC2 = biological target: T1, FL MuTMC2 (Melopsittacus undulatus, UniProt Z9DQS5U608); settings: labelled compound; POPC/POPE/POPS […] with […] cholesterol, pH […] °C; lipid translocation, no headgroup specificity
T1 construct: full length, 1-928; His-GFP tag; Sf9 (baculovirus); reconstituted in liposomes
T1 sequence (Z9DQS5U608 1-928): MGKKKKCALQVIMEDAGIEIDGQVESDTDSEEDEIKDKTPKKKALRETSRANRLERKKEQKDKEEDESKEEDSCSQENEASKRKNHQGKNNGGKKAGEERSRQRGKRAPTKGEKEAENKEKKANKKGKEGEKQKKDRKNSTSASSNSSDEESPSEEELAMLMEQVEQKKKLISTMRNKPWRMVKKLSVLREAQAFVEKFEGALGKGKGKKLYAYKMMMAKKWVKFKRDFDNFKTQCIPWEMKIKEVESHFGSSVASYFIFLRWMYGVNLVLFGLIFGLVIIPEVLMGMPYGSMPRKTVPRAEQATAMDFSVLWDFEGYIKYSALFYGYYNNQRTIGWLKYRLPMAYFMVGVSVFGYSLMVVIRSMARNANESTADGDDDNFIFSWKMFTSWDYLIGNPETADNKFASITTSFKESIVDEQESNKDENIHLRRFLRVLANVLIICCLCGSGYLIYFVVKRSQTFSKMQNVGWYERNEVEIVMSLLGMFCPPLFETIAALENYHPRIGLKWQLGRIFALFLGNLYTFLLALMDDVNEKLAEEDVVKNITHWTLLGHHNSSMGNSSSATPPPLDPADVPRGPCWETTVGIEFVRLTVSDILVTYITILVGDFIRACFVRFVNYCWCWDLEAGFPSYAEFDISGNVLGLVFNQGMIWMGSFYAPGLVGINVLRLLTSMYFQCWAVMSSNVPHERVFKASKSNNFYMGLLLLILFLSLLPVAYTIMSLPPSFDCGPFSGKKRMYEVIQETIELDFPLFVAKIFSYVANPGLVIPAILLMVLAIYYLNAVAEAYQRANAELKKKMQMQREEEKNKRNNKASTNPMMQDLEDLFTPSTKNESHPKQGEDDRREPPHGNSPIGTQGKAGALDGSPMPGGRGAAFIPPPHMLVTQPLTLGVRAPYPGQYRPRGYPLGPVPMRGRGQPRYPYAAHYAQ

FL CmTMC1 = biological target: T2, FL CmTMC1 (Chelonia mydas, UniProt Z9P3M8BL59); settings: labelled compound; POPC/POPE/POPS 2:1:1 with 10% cholesterol, pH 7.4, 25 °C; lipid translocation, no headgroup specificity
T2 construct: full length, 1-955; His-GFP tag; Sf9 (baculovirus); reconstituted in liposomes
T2 sequence (Z9P3M8BL59 1-955): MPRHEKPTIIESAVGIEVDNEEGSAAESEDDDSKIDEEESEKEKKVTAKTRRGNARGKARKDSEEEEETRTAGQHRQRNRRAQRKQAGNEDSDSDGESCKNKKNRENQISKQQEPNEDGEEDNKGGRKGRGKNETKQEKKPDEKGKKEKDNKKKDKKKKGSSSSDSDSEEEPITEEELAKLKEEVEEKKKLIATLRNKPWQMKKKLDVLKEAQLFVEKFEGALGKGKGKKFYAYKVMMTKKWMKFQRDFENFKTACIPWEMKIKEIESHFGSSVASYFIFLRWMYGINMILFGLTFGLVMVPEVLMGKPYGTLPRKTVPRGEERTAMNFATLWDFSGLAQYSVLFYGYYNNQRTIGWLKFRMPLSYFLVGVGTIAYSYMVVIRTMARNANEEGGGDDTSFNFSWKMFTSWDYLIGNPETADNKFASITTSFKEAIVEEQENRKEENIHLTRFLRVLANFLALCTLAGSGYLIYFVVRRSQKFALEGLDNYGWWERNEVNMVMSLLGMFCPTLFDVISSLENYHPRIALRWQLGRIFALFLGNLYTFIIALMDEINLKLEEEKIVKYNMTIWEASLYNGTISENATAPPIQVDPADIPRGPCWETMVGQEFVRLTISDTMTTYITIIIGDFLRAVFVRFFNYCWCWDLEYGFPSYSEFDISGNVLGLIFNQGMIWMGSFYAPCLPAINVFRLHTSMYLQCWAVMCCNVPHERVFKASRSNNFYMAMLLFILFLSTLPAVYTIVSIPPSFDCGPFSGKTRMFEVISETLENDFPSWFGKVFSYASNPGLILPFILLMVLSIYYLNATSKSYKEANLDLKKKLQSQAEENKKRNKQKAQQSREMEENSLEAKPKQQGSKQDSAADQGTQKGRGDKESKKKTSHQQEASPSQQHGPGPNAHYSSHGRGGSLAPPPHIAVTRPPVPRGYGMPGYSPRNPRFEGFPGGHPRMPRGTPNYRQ

MuTMC2 (truncated) = biological target: T3, MuTMC2 (truncated) (Melopsittacus undulatus, UniProt Z9DQS5U608); settings: labelled compound; POPC/POPE/POPS […] with […] cholesterol, pH […] °C; lipid translocation, no headgroup specificity
T3 construct: transmembrane core without N- and C-terminal domains; His-GFP tag kept; Sf9 (baculovirus); purified in DDM/CHS, reconstituted in liposomes
T3 sequence (Z9DQS5U608 211-807): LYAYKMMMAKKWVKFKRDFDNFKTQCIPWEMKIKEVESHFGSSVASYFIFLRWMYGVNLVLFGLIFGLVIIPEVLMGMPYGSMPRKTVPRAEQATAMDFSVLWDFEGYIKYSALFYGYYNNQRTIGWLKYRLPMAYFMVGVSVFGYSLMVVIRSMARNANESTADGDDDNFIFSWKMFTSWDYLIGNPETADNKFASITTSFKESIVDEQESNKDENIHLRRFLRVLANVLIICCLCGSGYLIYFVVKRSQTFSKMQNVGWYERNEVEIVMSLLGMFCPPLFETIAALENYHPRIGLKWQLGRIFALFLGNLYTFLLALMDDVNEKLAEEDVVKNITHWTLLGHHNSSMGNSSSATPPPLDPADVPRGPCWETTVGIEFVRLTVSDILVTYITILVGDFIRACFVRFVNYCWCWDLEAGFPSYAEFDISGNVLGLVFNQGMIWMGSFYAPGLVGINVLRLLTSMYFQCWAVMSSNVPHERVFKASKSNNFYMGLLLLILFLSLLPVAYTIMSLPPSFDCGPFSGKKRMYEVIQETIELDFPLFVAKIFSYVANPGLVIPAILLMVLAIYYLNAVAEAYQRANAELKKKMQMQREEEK

CmTMC1 (truncated) = biological target: T4, CmTMC1 (truncated) (Chelonia mydas, UniProt Z9P3M8BL59); settings: labelled compound; POPC/POPE/POPS 2:1:1 with 10% cholesterol, pH 7.4, 25 °C; lipid translocation, no headgroup specificity
T4 construct: transmembrane core without N- and C-terminal domains; His-GFP tag kept; Sf9 (baculovirus); purified in DDM/CHS, reconstituted in liposomes
T4 sequence (Z9P3M8BL59 230-828): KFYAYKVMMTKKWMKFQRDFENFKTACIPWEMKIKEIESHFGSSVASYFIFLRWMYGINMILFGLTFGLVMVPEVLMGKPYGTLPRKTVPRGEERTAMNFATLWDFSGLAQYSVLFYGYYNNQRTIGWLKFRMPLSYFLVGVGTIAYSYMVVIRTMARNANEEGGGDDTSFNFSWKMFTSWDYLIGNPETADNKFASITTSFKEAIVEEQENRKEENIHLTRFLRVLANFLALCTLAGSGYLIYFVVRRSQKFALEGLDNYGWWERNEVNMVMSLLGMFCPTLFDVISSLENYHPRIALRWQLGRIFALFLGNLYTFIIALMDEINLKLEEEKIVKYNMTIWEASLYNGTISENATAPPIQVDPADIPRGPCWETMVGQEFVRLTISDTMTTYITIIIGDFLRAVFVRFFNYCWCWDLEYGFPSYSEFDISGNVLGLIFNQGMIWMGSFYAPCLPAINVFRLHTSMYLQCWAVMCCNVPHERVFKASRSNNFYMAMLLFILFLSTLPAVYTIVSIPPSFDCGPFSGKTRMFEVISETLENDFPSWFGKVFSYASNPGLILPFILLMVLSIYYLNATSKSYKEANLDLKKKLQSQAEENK

## CCCCCCCCCCCCCC(=O)OC[C@H](COP(=O)(O)OCCN)OC(=O)CCCCCNc1ccc([N+](=O)[O-])c2nonc12 [NBD-PE, 1-myristoyl-2-sn-glycero-3-phosphoethanolamine]
FL MuTMC2
  proteoliposome scramblase assay, dithionite and BSA back-extraction of NBD fluor: no differences in PLS activity between truncated and FL CmTMC1 and MuTMC2
FL CmTMC1
  proteoliposome scramblase assay, dithionite and BSA back-extraction of NBD fluor: no differences in PLS activity between truncated and FL CmTMC1 and MuTMC2
MuTMC2 (truncated)
  proteoliposome scramblase assay, dithionite and BSA back-extraction of NBD fluor: due to scrambling of the fluorescent NBD-PE lipids by the TMC proteins
CmTMC1 (truncated)
  proteoliposome scramblase assay, dithionite and BSA back-extraction of NBD fluor: due to scrambling of the fluorescent NBD-PE lipids by the TMC proteins
